# Patent publication US10695322B2 (priority 2016, dated 2020)
# Like-named read-outs stand apart in the source and are kept apart here.
# Assays:
# [1] = tested on: M. tuberculosis, M. abscessus, A. baumannii, K. pneumoniae, E. cloacae, P. aeruginosa, E. faecalis and S. aureus; test: Minimum inhibitory concentration (MIC90), broth dilution, panel of pathogens; assay type: cell-based; settings: panel of tested pathogens
# [2] = molecular target: LdtMab1 (Mycobacteroides abscessus, UniProt B1MDC1); test: UPLC-MS analysis of protein-drug adducts, LdtMab1; assay type: binding, M. abscessus
# [3] = tested on: LdtMab2; test: UPLC-MS analysis of protein-drug adducts, LdtMab2; assay type: binding, M. abscessus; settings: evolved carbapenem alone
# [4] = molecular target: T1, LdtMt2 (Mycobacterium tuberculosis, UniProt I6Y9J2); assay type: binding, M. tuberculosis; settings: for Kd: 24° C., tris pH 8.0
# [5] = molecular target: LdtMab2 (Mycobacteroides abscessus, UniProt B1MMQ4); test: Isothermal titration calorimetry, binding to LdtMab2; parameters: species or system M. abscessus; settings: ITC, 24° C., tris pH 8.0
# [6] = tested on: LdtCl; test: UPLC-MS analysis of protein-drug adducts, LdtCl; assay type: binding, E. cloacae; settings: evolved carbapenem alone
# Method: Ultra-performance liquid chromatography-high resolution mass spectrometry (UPLC-MS) with a Waters Acquity H-Class system utilizing a Waters Acquity BEH-300 UPLC column packed with a C4 stationary phase (2.1×50 mm, 1.7 μm) in conjunction with HRMS analysis by a Waters Xero-G2 quadropole-TOF electrospray mass spectrometer was used to detect and analyze protein-drug adducts. Each enzyme (2 μM) in 25 mM Tris buffer, pH 8, was incubated in the absence or presence of drugs (50 μM) at room temperature for 5 hours. Trifluoroacetic acid (0.1% final) was used to quench the reactions, samples were filtered through a 0.22 um filter and analyzed using UPLC-MS as follows: Mobile phase: 0-1 min 90% water+10% ACN+0.1% formic acid, 1-7.5 min gradient up to 20% water+80% ACN+0.1% formic acid, 7.5-8.4 min 20% water+80% ACN+0.1% formic acid, 8.4-8.5 min gradient up to 90% water+10% ACN+0.1% formic acid, 8.5-10 min 90% water+10% ACN+0.1% formic acid. Flow rate=0.3 mL min^−1. T=60° C.
# [7] = molecular target: T2, LdtMt2, wild-type (L,D-transpeptidase of M. tuberculosis; fragment without N-terminal transmembrane domain, N-terminal His6, TEV-cleavable) (Mycobacterium tuberculosis, UniProt I6Y9J2); test: biochemical; assay type: binding
# T2 construct: Fragments excluding the putative transmembrane domain were cloned, expressed and purified; His6 (TEV-cleavable) (N); made in house; host or cells: E. coli BL21(DE3)
# [8] = tested on: LdtPa; test: UPLC-MS analysis of protein-drug adducts, LdtPa; assay type: binding, P. aeruginosa
# [9] = tested on: LdtKp; test: UPLC-MS analysis of protein-drug adducts, LdtKp; assay type: binding, K. pneumoniae
# [10] = molecular target: LdtMt1 (Mycobacterium tuberculosis, UniProt O53638); test: biochemical; assay type: binding, M. tuberculosis
# [11] = molecular target: T1, LdtMt2; test: biochemical; parameters: species or system M. tuberculosis
# [12] = molecular target: T1, LdtMt2; assay type: binding, M. tuberculosis
# [13] = 10 μM LdtMt2, MES pH 6.5, 10° C.
# T1 sequence (I6Y9J2 56-408 limits assumed): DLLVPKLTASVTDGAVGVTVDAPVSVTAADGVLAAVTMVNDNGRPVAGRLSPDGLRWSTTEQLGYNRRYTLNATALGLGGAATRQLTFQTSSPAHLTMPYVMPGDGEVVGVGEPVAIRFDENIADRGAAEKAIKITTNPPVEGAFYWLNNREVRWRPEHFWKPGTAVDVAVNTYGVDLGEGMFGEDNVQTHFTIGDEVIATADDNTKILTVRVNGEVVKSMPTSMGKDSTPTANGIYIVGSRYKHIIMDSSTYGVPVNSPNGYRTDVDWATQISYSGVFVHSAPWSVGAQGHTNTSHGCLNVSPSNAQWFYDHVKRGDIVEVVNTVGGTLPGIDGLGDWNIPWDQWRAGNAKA
# T2 sequence (I6Y9J2 56-408 limits assumed): as above
# LdtMab1, sequence (B1MDC1 entry or part of it): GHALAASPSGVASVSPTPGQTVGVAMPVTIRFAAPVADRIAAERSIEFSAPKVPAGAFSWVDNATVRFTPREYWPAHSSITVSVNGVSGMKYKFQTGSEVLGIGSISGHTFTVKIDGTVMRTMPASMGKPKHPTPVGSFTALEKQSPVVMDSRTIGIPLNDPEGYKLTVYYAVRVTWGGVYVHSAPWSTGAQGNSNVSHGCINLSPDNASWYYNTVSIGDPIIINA
# LdtMt1, sequence (O53638 32-251 limits assumed): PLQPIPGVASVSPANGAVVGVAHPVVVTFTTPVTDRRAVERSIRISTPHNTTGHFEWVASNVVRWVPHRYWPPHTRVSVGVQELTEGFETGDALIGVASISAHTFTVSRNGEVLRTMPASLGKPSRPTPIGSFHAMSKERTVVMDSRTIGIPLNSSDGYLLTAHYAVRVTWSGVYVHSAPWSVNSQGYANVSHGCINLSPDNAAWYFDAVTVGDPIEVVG
# LdtMab2 (Mycobacteroides abscessus, UniProt B1MMQ4), sequence (B1MMQ4 62-406 limits assumed): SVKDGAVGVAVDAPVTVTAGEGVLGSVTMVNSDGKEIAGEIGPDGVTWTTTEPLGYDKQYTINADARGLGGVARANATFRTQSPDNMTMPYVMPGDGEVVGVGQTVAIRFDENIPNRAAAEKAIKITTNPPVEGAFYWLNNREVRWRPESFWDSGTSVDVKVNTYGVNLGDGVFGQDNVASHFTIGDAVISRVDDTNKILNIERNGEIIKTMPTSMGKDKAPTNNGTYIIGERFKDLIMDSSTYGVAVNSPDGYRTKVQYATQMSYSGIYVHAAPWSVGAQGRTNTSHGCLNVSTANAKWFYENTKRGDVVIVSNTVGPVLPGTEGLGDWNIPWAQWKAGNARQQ
structure (smiles),measurement,setting,value
C[C@@H](O)[C@H]1C(=O)N2C(C(=O)O)=C(SCCc3ccccc3)[C@H](C)[C@H]12 [T223],minimum inhibitory concentration (MIC90) / growth inhibition,[1],inhibit growth of all tested pathogens except P. aeruginosa
CCCOC(=O)CSC1=C(C(=O)O)N2C(=O)[C@H]([C@@H](C)O)[C@H]2[C@H]1C [T206],reaction and covalent adduct formation,[2],reacted and formed covalent adducts
same,reaction and covalent adduct formation,[3],did not react
same,Kd,[4]; ITC,low to sub μM range
same,Kd,[5],low to sub μM range
same,reaction and covalent adduct formation,[6],reacted and formed covalent adducts
same,Kd,[7],2.8 µM
same,reaction and covalent adduct formation,[8],did not react
same,reaction and covalent adduct formation,[9],reacted and formed covalent adducts
CC(=O)OCC1=C(C(=O)O)N2C(=O)[C@@H](NC(=O)Cc3cccs3)[C@H]2SC1 [cephalothin],heat of association,[4],could not be detected
same,heat of association,[10],could not be detected
C[C@@H](O)[C@H]1C(=O)N2C(C(=O)O)=C(Sc3c[nH]c4ccccc34)[C@H](C)[C@H]12 [T224],minimum inhibitory concentration (MIC90) / growth inhibition,[1],inhibit growth of all tested pathogens except P. aeruginosa
C[C@@H](O)[C@H]1C(=O)N2C(C(=O)O)=C(SCc3ccccc3)[C@H](C)[C@H]12 [T222],minimum inhibitory concentration (MIC90) / growth inhibition,[1],inhibit growth of all tested pathogens except P. aeruginosa
CSC1=C(C(=O)O)N2C(=O)[C@H]([C@@H](C)O)[C@H]2[C@H]1C [T210],reaction and covalent adduct formation,[2],reacted and formed covalent adducts
same,reaction and covalent adduct formation,[3],did not react
same,Kd,[5],low to sub μM range
same,Kapp,[11]; [13],20.8 ± 3.3 µM
same,reaction and covalent adduct formation,[6],reacted and formed covalent adducts
same,reaction and covalent adduct formation,[8],reacted and formed covalent adducts
same,reaction and covalent adduct formation,[9],reacted and formed covalent adducts
C[C@H]1[C@H](NC(=O)/C(=N\OC(C)(C)C(=O)O)c2csc(N)n2)C(=O)N1S(=O)(=O)O [aztreonam],heat of association,[4]; ITC,could not be detected
same,heat of association,[10]; ITC,could not be detected
CC1(C)S[C@@H]2[C@H](NC(=O)[C@H](N)c3ccc(O)cc3)C(=O)N2[C@H]1C(=O)O [amoxicillin],heat of association,[4]; ITC,could not be detected
same,heat of association,[10]; ITC,could not be detected
C[C@@H](O)[C@H]1C(=O)N2C(C(=O)O)=C(SCC(F)(F)F)[C@H](C)[C@H]12 [T221],minimum inhibitory concentration (MIC90) / growth inhibition,[1],inhibit growth of all tested pathogens except P. aeruginosa
C[C@@H](O)[C@H]1C(=O)N2C(C(=O)O)=C(S[C@@H]3CN[C@H](CNS(N)(=O)=O)C3)[C@H](C)[C@H]12 [doripenem],Kapp,[11]; pH 6.5,32.6 ± 11.3 µM
same,kinact,[11]; pH 6.5,0.122 s⁻¹
same,kinact/KI,[11]; read-out: kinact/Kapp ratio,3670 M⁻¹ s⁻¹
same,mass of stable adduct with wild-type LdtMt2,[12],123 Da
C[C@@H](O)[C@H]1C(=O)N2C(C(=O)O)=C(SCC(=O)OC3CCCCC3)[C@H](C)[C@H]12 [T208],reaction and covalent adduct formation,[2],reacted and formed covalent adducts
same,reaction and covalent adduct formation,[3],did not react
same,Kd,[4]; ITC,low to sub μM range
same,Kd,[5],low to sub μM range
same,Kapp,[11]; [13],4.8 ± 2.9 µM
same,kinact,"[11]; 10 μM LdtMt2, MES pH 6.5, 10° C., read-out: kinact (converted)",0.045 s⁻¹
same,reaction and covalent adduct formation,[6],reacted and formed covalent adducts
same,Kd,[7],5.65 µM
same,reaction and covalent adduct formation,[8],reacted and formed covalent adducts
same,reaction and covalent adduct formation,[9],reacted and formed covalent adducts
"COC(=O)CSC1=C(C(=O)[O-])N2C(=O)[C@H]([C@@H](C)O)[C@H]2[C@H]1C.[Na+] [T205, sodium (4R,5S,6S)-6-((R)-1-hydroxyethyl)-3-((2-methoxy-2-oxoethyl)thio)-4-methyl-7-oxo-1-azabicyclo[3.2.0]hept-2-ene-2 carboxylate]",reaction and covalent adduct formation,[2],reacted and formed covalent adducts
same,reaction and covalent adduct formation,[3],did not react
same,reaction and covalent adduct formation,[6],reacted and formed covalent adducts
same,Kd,[7],155 µM
same,reaction and covalent adduct formation,[8],reacted and formed covalent adducts
same,reaction and covalent adduct formation,[9],reacted and formed covalent adducts
